# Measured values published in article PMC9895975 (Scientific Reports, 2023).
# Key:
# [1] = Global hydrodynamic fit SingleHYDFIT (E2 protocol); type: physicochemical; settings: assumed molar mass of 18-mer (33835 Da) and of 19-mer (35714 Da), same result for both
# From the text: To check this, we use a global fitting approach known as SingleHYDFIT[54] which combines intrinsic viscosity data with sedimentation coefficient and dynamic light scattering (hydrodynamic radius) data together, along with the molecular weight and partial specific volume. It involves the minimization of a global fitting function (Fig. 7). The E2 protocol (ratio of ellipsoid) was chosen and run twice: once with an assumed molar mass equivalent of an 18-mer (33835 Da) and once again with an assumed molar mass of 19-mer (35714 Da). Delta (Δ) was plotted against axial ratio, where values < 1 mean oblate and > 1 mean prolate (Fig. 7).
# [2] = Sedimentation equilibrium in the analytical ultracentrifuge (SE-AUC, SEDFIT-MSTAR); type: physicochemical; settings: M* method, 0-10 mg/mL, corresponds to the unimer
# [3] = Hydrodynamic radius by dynamic light scattering (DLS); type: physicochemical; settings: 12.5 mg/mL; 20.0 °C; scattering angle 173°; Zetasizer Nano-S; averaged over several measurements
# Description: Dynamic or quasi-elastic light scattering (DLS or QLS) measurements were made on the fixed scattering angle Zetasizer Nano-S system (Malvern instruments Ltd., Malvern UK) equipped with a 4mW He–Ne laser at a wavelength of 632.8nm[46],[47]. Samples in solution were measured in a quartz cuvette at 20.0 °C. A scattering angle of 173° was used, and collected in manual mode, requiring a measurement duration of 90 s, averaged over several measurements. The resulting data were analysed using the “Zetasizer Software (Version 7.1)” (Malvern Instruments Ltd., Malvern, UK), providing a volume distribution of translational diffusion coefficients based on a form of the CONTIN program. The viscosity of the buffer used was calculated using a solvent builder interface and takes the effects of buffer salts into account. The z-average hydrodynamic radii rz (nm), were evaluated from the z-average translational diffusion coefficients Dz by the Stokes–Einstein Eq. [47]:3 rz=kBT/{6πηoDz} where kB is the Boltzmann constant, T is the absolute temperature and η is the viscosity of the medium. […] (ii) the teicoplanin in its monomeric and multi-meric form were quasi-spheroidal and not asymmetric so there was no angular dependence of the measured Dz, values on anisotropic rotational diffusion effects—i.e. an extrapolation to zero angles was not necessary.
# [4] = Partial specific volume from solution/solvent densities (digital density meter); type: physicochemical; settings: c = 10.2 mg/mL; Anton-Paar digital density meter; PBS
# Description: The partial specific volume υ¯ from solution/ solvent densities was determined using an Anton-Paar (Graz, Austria) digital density meter, and application of:1 υ¯=1/ρ0·1-ρ-ρ0/c at a concentration, c, of 10.2 mg/mL, and where ρ and ρ0 are the densities of the solution and solvent, respectively.
# [5] = below that value a gel might be formed in solution; cited from earlier work
# Description: Although it is important to explore how teicoplanin binds to the Lipid II moiety regardless of its phenotypes, the knowledge of the biological form of teicoplanin in an aqueous solution is of importance. Teicoplanin and its aglycon derivatives[25] use their long […] chain to attach themselves to the targeted sites. It is known that the minimum volume of solvent required to dissolve 400 mg of teicoplanin is 3 ml because, below that value, a gel might be formed in solution[10]. Teicoplanin derivatives have also been reported to create nano-sized aggregates in aqueous solution[26]. This gelati ...
# [6] = Sedimentation velocity in the analytical ultracentrifuge (SV-AUC); type: physicochemical; settings: for concentration above which the sedimentation coefficient distribution is unimodal (assembled form): SEDFIT
# Description: (§1) Teicoplanin samples were prepared in a phosphate-chloride buffered saline solution (PBS, or “Paley buffer”) at pH ~ 6.8 and, by adding NaCl, adjusted to an ionic strength of I = 0.1 mol/L[38].
# Experiments to determine sedimentation coefficients and sedimentation coefficient distributions were performed at a temperature of 20.0 °C (at which standardised values are easily calculated) using an Optimal XL-I analytical ultracentrifuge (Beckman Instruments, Palo Alto, CA, USA) with Rayleigh interference optics. Teicoplanin samples (400 μL ) and reference solvent (PBS, 420 μL ) were injected into channels of the 12 mm double sector epoxy cells with sapphire windows. These cells were then centrifuged at 47,500 rpm for a run time of ~ 24 h and the data obtained were analysed in SEDFIT using the least squares, ls-g*(s) processing method. This generates the sedimentation coefficient distribution, g(s) versus sT,b , where sT,b is the sedimentation coefficient, at temperature T in buffer b. The s value in Svedberg units, S = 10^-13 seconds, was then normalised to standard conditions (density ρ20,w and viscosity η20,w of water at 20.0 °C) to give s20,w from the Eq. [43]:2 s20,w=1-υ¯·ρ20,w/1-υ¯·ρT,b·ηT,b/η20,w·sT,b where ρT,b and ηT,b are the density and the viscosity of buffer b at temperature T, respectively.
# SARS-CoV virus = settings: cited from earlier work
# [7] = Sedimentation equilibrium in the analytical ultracentrifuge (SE-AUC, SEDFIT-MSTAR); type: physicochemical; settings: for concentration from which the self-association (Mw,app) plateaus: range 0-10 mg/mL, hinge point and M* methods
# Description: as §1
# Sedimentation equilibrium experiments were used to obtain equilibrium concentration distribution profiles for absolute molecular weight measurement. An Optima XL-I analytical ultracentrifuge was also employed but at a lower temperature of 7 °C because of the longer duration of a sedimentation equilibrium experiment compared to sedimenation veloicity. To characterise the self-association/aggregation of teicoplanin, 12 mm double sector epoxy cells were loaded with the same volumes (100 μL ) of both solution and solvent and run at 45,000 rpm for a run time of ~ 48 h. Records of concentration distributions of teicoplanin at equilibrium were subsequently analysed using the model-independent SEDFIT-MSTAR algorithm. Since the non-ideality of teicoplanin is negligible we estimated that apparent weight average molar masses Mw,app were approximately equal to the true weight average molar masses Mw. The multiple concentrations used effectively represent repeats for the sedimentation equilibrium (and sedimentation velocity) experiments.
# To determine the weight-average molar masses Mw of teicoplanin, the M* extrapolation method[45] and hinge point analysis, both incorporated in the sedimentation equilibrium-based SEDFIT–MSTAR software[44] were used. […] Rayleigh interference optics provides an accurate record of a sedimentation equilibrium concentration profile c(r) vs r, which means that the local concentration c(r) at the radial position r (cm) is from the rotation centre. M*(r) is a useful operational point average molar mass parameter. M*(r → rb) = Mw is the weight average molar mass over the whole macromolecular distribution, where r is the radial position at the cell base. This method is particularly advantageous for polydisperse/ or self-associating systems. As an additional check, the “hinge point method” (the value of the point weight average molar mass, Mw(r) at the “hinge point” in the sedimentation equilibrium distribution, i.e. the radial position in the cell where the local concentration c(r) = the original loading concentration) provides another estimate for the whole distribution molar mass Mw[44].
# [8] = Intrinsic viscosity, capillary (rolling ball) viscometry; type: physicochemical; settings: 10.2 mg/mL; 25.0 °C; rolling ball viscometer AMVn; Solomon-Ciuta relation; phosphate-chloride buffer pH 6.8, I = 0.10 M
# Description: Teicoplanin solutions were analysed using the capillary viscometer AMVn (Anton-Paar, Graz, Austria). This measurement was conducted at a temperature of 25.0 °C based on the rolling ball viscosity method. With a 1.4 mm steel ball moving in a 1.6 mm diameter glass capillary, the flow times (averaged over repeat measurements) of the solvent and solution were then determined. The relative viscosity was calculated from the equation:4 ηrel=ρ·t/ρ0·t0=ηsp+1 where ηsp is the specific viscosity. Then the intrinsic viscosity η was estimated from the Solomon-Ciuta relation[52] at a concentration of 10.2 mg/ml, which gave a sufficient flow time increment between solvent and solution:5 η≈1/c·2ηsp-2lnηrel^1/2
# [9] = Conformational analysis from intrinsic viscosity (ELLIPS1, Einstein-Simha shape factor); type: physicochemical; settings: for axial ratio (a/b) oblate / axial ratio (a/b) prolate: ELLIPS1; for viscosity shape function ν: [η] = 3.2 mL/g; for swelling ratio vs/υ¯ through dynamic hydration: maximum value, corresponds to a/b = 1 (sphere), confirmed by SingleHYDFIT
# From the text: In order to interpret this in terms of a molecular shape account needs to be taken of the contribution of the swollen specific volume of the assembly in solution vs (which will be swollen due to a time-averaged association with the surrounding solvent through dynamic hydrogen bonding and other associative processes)[43]:6 [η]=ν.vs
# Equation (6) ν is the Einstein-Simha shape factor. vs is likely to be higher for the glycopeptide than for proteins due to the relatively large proportion of carbohydrate which tends to have a greater affinity for solvent. In Table 1 values of the shape factor ν , and their corresponding ellipsoid of revolution axial ratios a/b were calculated based on either a prolate or oblate model, using the routine ELLIPS1 (Harding et al. 1997) for 3 cases of vs/ υ¯ , including the (unlikely) case of no swelling vs/ υ¯ = 1. The maximum value for vs/ υ¯ ~ 2, which corresponds to the minimum value of a/b = 1 (i.e. a sphere, Fig. 6), and this seems the most likely scenario.
# [10] = without a lipid chain; cited from earlier work
# CTSL-dependent viruses = settings: cited from earlier work
# [11] = phosphate-chloride buffer pH 6.8, I = 0.10 M, 7 °C, SEDFIT-MSTAR
# [12] = assumed vs/υ¯ = 1 (no swelling)
substance,measurement,setting,value
teicoplanin A2,axial ratio of the assembly from SingleHYDFIT,[1],1.0 ± 0.0
same,weight-average molar mass Mw in 6 M GuHCl,[2],1.75 ± 0.35 kDa
same,z-average hydrodynamic radius rz,[3],~ 3.2 nm
same,partial specific volume υ¯,[4],0.64 ± 0.01 mL/g
same,minimum volume of solvent required to dissolve 400 mg,[5],3 mL
same,s-value (not normalised) of teicoplanin dissolved in 6 M GuHCl,"[6]; 6 M GuHCl, SV-AUC",~ 0.7 S
same,"s20,w of teicoplanin dissolved in 6 M GuHCl","[6]; 6 M GuHCl, SV-AUC, normalised to water at 20.0 °C",1.17 ± 0.01 S
same,"sedimentation coefficient s20,w of the self-associated assembly (upper extrapolated value)","[6]; phosphate-chloride buffer pH 6.8, I = 0.10 M, 20.0 °C, 47,500 rpm, ~24 h, Rayleigh interference optics, SEDFIT ls-g*(s), s vs c plot, 0-5 mg/mL",~ 4.65 S
same,concentration above which the sedimentation coefficient distribution is unimodal (assembled form),"[6]; phosphate-chloride buffer pH 6.8, I = 0.10 M, 20.0 °C",> 500 µg/mL
same,concentration above which the sedimentation coefficient distribution is unimodal (assembled form),"[6]; phosphate-chloride buffer pH 6.8, I = 0.10 M, 20.0 °C, listed as teicoplanin",> 500 µg/mL
same,"sedimentation coefficient, lower extrapolated value (predicted value for a spheroidal unimer)","[6]; phosphate-chloride buffer pH 6.8, I = 0.10 M, 20.0 °C, s vs c plot extrapolated to low concentration",~ 0.7 S
same,"concentration below which the assembly dissociates (separation, bimodality)","[6]; phosphate-chloride buffer pH 6.8, I = 0.10 mol/L, 20.0 °C",< 500 µg/mL
same,effect on cell entry of the SARS-CoV virus,SARS-CoV virus,inhibited cell entry
same,"number of monomers in the assembly (mers), M* method","[7]; from plateau Mw 33,000 g/mol, buffer pH 6.8, I = 0.10 M",~ 18 mers
same,"number of monomers in the assembly (mers), hinge point method","[7]; from plateau Mw 35,400 g/mol, buffer pH 6.8, I = 0.10 M",~19 ± 1 mers
same,"plateau weight average molar mass Mw,app, M* method","[7]; phosphate-chloride buffer pH 6.8, I = 0.10 M, 7 °C, 45,000 rpm, ~48 h, SEDFIT-MSTAR, c from 1 mg/mL","33,000 ± 1000 g/mol"
same,"plateau weight average molar mass Mw,app, hinge point method","[7]; phosphate-chloride buffer pH 6.8, I = 0.10 M, 7 °C, 45,000 rpm, ~48 h, SEDFIT-MSTAR, c from 1 mg/mL up to 10 mg/mL","35,400 ± 1000 g/mol"
same,apparent weight average molar mass Mw extrapolated to zero concentration (M* method),[7]; [11],1.9 ± 0.1 kDa
same,"weight average molar mass extrapolated to zero concentration, hinge point method Mw(rhinge)",[7]; [11],2.7 ± 0.1 kDa
same,"concentration from which the self-association (Mw,app) plateaus","[7]; phosphate-chloride buffer pH 6.8, I = 0.10 M",> 1000 µg/mL
same,"concentration from which the self-association (Mw,app) plateaus","[7]; phosphate-chloride buffer pH 6.8, I = 0.10 M, listed as teicoplanin",1000 µg/mL
same,"size of the self-associated assembly (n-mer), overall","[7]; phosphate-chloride buffer pH 6.8, I = 0.10 mol/L, AUC and viscometry combined",18–19 mer
same,intrinsic viscosity [η],[8],3.2 ± 0.1 mL/g
same,swollen specific volume vs,[9]; [12],0.64 mL/g
same,axial ratio (a/b) oblate,[9]; [12],5.4
same,axial ratio (a/b) prolate,[9]; [12],4.3
same,viscosity shape function ν,[9]; [12],5.0
same,swollen specific volume vs,[9]; assumed vs/υ¯ = 1.5,0.96 mL/g
same,axial ratio (a/b) oblate,[9]; assumed vs/υ¯ = 1.5,2.8
same,axial ratio (a/b) prolate,[9]; assumed vs/υ¯ = 1.5,2.5
same,viscosity shape function ν,[9]; assumed vs/υ¯ = 1.5,3.3
same,swollen specific volume vs,[9]; assumed vs/υ¯ = 2,1.28 mL/g
same,axial ratio (a/b) oblate,[9]; assumed vs/υ¯ = 2,1
same,axial ratio (a/b) prolate,[9]; assumed vs/υ¯ = 2,1
same,viscosity shape function ν,[9]; assumed vs/υ¯ = 2,2.5
same,swelling ratio vs/υ¯ through dynamic hydration,[9],~ 2
same,swelling ratio vs/υ¯ through dynamic hydration,[9]; listed as teicoplanin,2
teicoplanin aglycon,self-association in solution,[10],dimerise weakly
vancomycin,antiviral activity against CTSL-dependent viruses,CTSL-dependent viruses,cannot express antiviral activity
